Literature values, collected in patent publication US20230123388A1 (GLANIS PHARMACEUTICALS, INC., priority 2020, published 2023).
Where a name gives a salt, the structure may show the parent alone. Read-outs that look alike come from different tables or passages of the source.

What was measured:
[1] = not given; remark: listed apart in the source
[2] = test system: albumin and apha1-acid glycoprotein

solubility in alcohol (alcohol)	solubility in chloroform (chloroform)	solubility in ether (ether)	solubility in water (water)	time of peak concentration ([1]; 200 mg oral dose)	peak concentration in blood ([1]; 200 mg oral dose, blood)	plasma concentration (peak) ([1]; 200 mg oral dose, plasma)	terminal half-life ([1]; based on blood concentration)	terminal half-life ([1]; based on the plasma concentration profile)	clearance ([1]; in vivo)	half-life ([1]; in vivo)	volume of distribution ([1]; in vivo, listed as HCQ)	oral bioavailability ([1]; oral tablet)	bioavailability ([1]; randomized cross over study, 155 mg dose oral and IV infusion)	protein binding [2]	SMILES
practically insoluble	practically insoluble	practically insoluble	freely soluble	–	–	–	–	–	–	–	–	–	–	–	CCN(CCO)CCCC(C)Nc1ccnc2cc(Cl)ccc12 (stereo not drawn) [Hydroxychloroquine sulfate]
–	–	–	–	around 3 hours	around 129.6 ng/ml	around 50.3 ng/ml	30 to 60 days	~32 days	15.5 L/h	~2.08 days	very large and high	about 75%	0.74	~40%	CCN(CCO)CCCC(C)Nc1ccnc2cc(Cl)ccc12 (stereo not drawn) [Hydroxychloroquine]
